Assay results published in paper PMC10815238, “New N-Terminal Fatty-Acid-Modified Melittin Analogs with Potent Biological Activity” (International Journal of Molecular Sciences, 2024).

Experiments:
[1] = Hydrophobicity assay (RP-HPLC retention time); assay type: physicochemical; conditions: chromatographic, ChromCore120 C18 column 4.6 x 250 mm 5 μm; 0.1 mg/mL in deionized water; A 0.1% TFA in water, B 0.1% TFA in acetonitrile; 5% B to 90% B over 30 min; 1 mL/min; UV 220 nm; three independent experiments
Text: The hydrophobicity, amphipathicity, and positive charge distribution of lipopeptides are crucial for their antimicrobial activities. Among these, hydrophobicity has been deemed essential for promoting a hydrophobic interaction with the lipid bilayer, leading to membrane disruption, cytoplasm leakage, and eventual cell death. Lipopeptides with different peptide sequences and chain lengths usually show different hydrophobicities, generating different RTs in the RP-HPLC analysis. The more hydrophobic the lipopeptide, the longer the RT on the column.
Each MDL was dissolved and diluted to 0.1 mg/mL in deionized water (obtained in-house) and then subjected to RP-HPLC on a ChromCore120 C18 column (4.6 × 250 mm, 5 μm) (NanoChrom, Suzhou, China) using 0.1% trifluoroacetic acid (TFA) (Macklin, Shanghai, China) in water as solvent A and 0.1% TFA in acetonitrile (Merck, Darmstadt, Germany) as solvent B. The elution gradient was as follows: 5% B to 90% B over 30 min, 90% B maintained for 2 min, and 90% B to 5% B over 1 min. The flow rate was 1 mL/min and measurements were taken at 220 nm. The retention time was recorded for each MDL.

[2] = CD measurements of secondary structure; assay type: physicochemical; conditions: 0.5 mg/mL, 25 °C
Experimental: The CD spectra of the MDLs were measured at 25 °C on a Chirascan spectrometer (Applied Photophysics, Surrey, UK) using a quartz cell with a 1.0 mm path length, recording from 180 to 260 nm. A scanning speed of 50 nm/min was used and the bandwidth was 1 nm. The optical path and slit width were 0.1 cm and 0.1 nm, respectively. […], 50% TFE (Macklin, Shanghai, China) was used to mimic the hydrophobic condition of the microbial membrane, and 25 mM SDS (Macklin, Shanghai, China) micelles were used to mimic the negatively charged prokaryotic membrane. The observed ellipticity was converted to molar ellipticity using the following equation: θ=θobs(MRW/10×c×l) where [θ] is the molar ellipticity (deg·cm^2·dmol^−1), θobs is the observed ellipticity corrected for the buffer at a given wavelength (mdeg), MRW is the mean residual molecular weight (molecular weight/number of amino acids), c is the peptide concentration (mg/mL), and l is the path length (cm). Assuming lipopeptides were a two-state model, the percentage in the α-helix structure of the MDLs was calculated using the following equation: α-helical content=−([θ]222 +2000)/30,000×100%

[3] = test system: E. coli ATCC 25922; assay: Salt sensitivity (MIC in the presence of physiological salts); assay type: cell-based, Escherichia coli; parameters: key to MIC, NaCl / MIC, KCl / MIC, MgCl2: MIC in μg/mL (two-fold dilutions 256 to 0.25 μg/mL); conditions: for MIC, MgCl2: 1 mM MgCl2, unit not given in Table 4; for MIC, FeCl3: 4 mM FeCl3, unit not given in Table 4; for MIC, KCl: 4.5 mM KCl; for MIC, KCl / MIC, NaCl: unit not given in Table 4; for MIC, NaCl: 150 mM NaCl; for MIC, Control: no added salt, unit not given in Table 4 (Table 3 MIC in μg/mL)
Experimental: (§1) MIC was determined using the broth microdilution method with minor modification. In brief, bacteria (S. aureus ATCC 43300, E. faecalis ATCC 29212, E. coli ATCC 25922, P. aeruginosa ATCC 27853, L. monocytogenes CVCC 3764, B. cereus CVCC 4101, S. Castellani CGMCC 1.1869, and the multidrug-resistant E. coli strain) were cultured in nutrient broth (NB) medium (Macklin, Shanghai, China) to the logarithmic phase and diluted to 1 × 10^6 colony forming units (CFUs)/mL. The MDLs were dissolved to a final concentration of 256~0.25 μg/mL in NB medium using two-fold dilutions. A total of 50 μL of different concentrations of the MDL solutions and an equal volume of bacterial suspension were added to a 96-well plate, which was then incubated at 37 °C for 18 h. The minimum concentrations of the MDLs with no visible growth of bacteria were defined as the corresponding MICs. Media containing bacteria without the MDLs were set as the negative control. Each measurement was performed independently three times.
(§2) This was carried out in triplicate and tested at least twice.

[4] = test system: S. aureus ATCC 43300; assay: as above; assay type: cell-based, Staphylococcus aureus; parameters: key: MIC in μg/mL (two-fold dilutions 256 to 0.25 μg/mL); conditions: for MIC, MgCl2: 1 mM MgCl2, unit not given in Table 4; for MIC, FeCl3: 4 mM FeCl3, unit not given in Table 4; for MIC, KCl: 4.5 mM KCl; for MIC, KCl / MIC, NaCl: unit not given in Table 4; for MIC, NaCl: 150 mM NaCl; for MIC, Control: no added salt, unit not given in Table 4 (Table 3 MIC in μg/mL)
Experimental: as §1, §2

Row | Compound | RT, Min (RP-HPLC retention time, measure of hydrophobicity) [1] [min] | α-Helix, % ([2]; 25 mM SDS) [%] | β-Fold, % ([2]; 25 mM SDS) [%] | α-Helix, % ([2]; 50% TFE) [%] | β-Fold, % ([2]; 50% TFE) [%] | α-Helix, % ([2]; PBS Buffer) [%] | β-Fold, % ([2]; PBS Buffer) [%] | MIC, MgCl2 [3] | MIC, FeCl3 [3] | MIC, KCl [3] | MIC, NaCl [3] | MIC, MgCl2 [4] | MIC, FeCl3 [4] | MIC, KCl [4] | MIC, NaCl [4] | MIC, Control [4] | MIC, Control [3]
1 | CC[C@H](C)[C@H](NC(=O)CNC(C)=O)C(=O)NCC(=O)N[C@@H](C)C(=O)N[C@H](C(=O)N[C@@H](CC(C)C)C(=O)N[C@@H](CCCCN)C(=O)N[C@H](C(=O)N[C@@H](CC(C)C)C(=O)N[C@H](C(=O)N[C@H](C(=O)NCC(=O)N[C@@H](CC(C)C)C(=O)N1CCC[C@H]1C(=O)N[C@@H](C)C(=O)N[C@@H](CC(C)C)C(=O)N[C@H](C(=O)N[C@@H](CO)C(=O)N[C@@H](Cc1c[nH]c2ccccc12)C(=O)N[C@H](C(=O)N[C@@H](CCCCN)C(=O)N[C@@H](CCCNC(=N)N)C(=O)N[C@@H](CCCCN)C(=O)N[C@@H](CCCNC(=N)N)C(=O)N[C@@H](CCC(N)=O)C(=O)N[C@@H](CCC(N)=O)C(N)=O)[C@@H](C)CC)[C@@H](C)CC)[C@@H](C)O)[C@@H](C)O)C(C)C)C(C)C [Peptide C2-Mel] | 12.247 ± 0.021 | 20.9 | 19.9 | 26.5 | 17.8 | 6 | 32.8 | 32 | 32 | 16 | 16 | 16 | 16 | 4 | 4 | 4 | –
2 | CCCC(=O)NCC(=O)N[C@H](C(=O)NCC(=O)N[C@@H](C)C(=O)N[C@H](C(=O)N[C@@H](CC(C)C)C(=O)N[C@@H](CCCCN)C(=O)N[C@H](C(=O)N[C@@H](CC(C)C)C(=O)N[C@H](C(=O)N[C@H](C(=O)NCC(=O)N[C@@H](CC(C)C)C(=O)N1CCC[C@H]1C(=O)N[C@@H](C)C(=O)N[C@@H](CC(C)C)C(=O)N[C@H](C(=O)N[C@@H](CO)C(=O)N[C@@H](Cc1c[nH]c2ccccc12)C(=O)N[C@H](C(=O)N[C@@H](CCCCN)C(=O)N[C@@H](CCCNC(=N)N)C(=O)N[C@@H](CCCCN)C(=O)N[C@@H](CCCNC(=N)N)C(=O)N[C@@H](CCC(N)=O)C(=O)N[C@@H](CCC(N)=O)C(N)=O)[C@@H](C)CC)[C@@H](C)CC)[C@@H](C)O)[C@@H](C)O)C(C)C)C(C)C)[C@@H](C)CC [Peptide C4-Mel] | 13.704 ± 0.005 | 19.3 | 23.8 | 20.7 | 25.4 | 6.1 | 33.7 | 32 | 32 | 16 | 8 | 16 | 16 | 4 | 2 | 2 | 8
3 | CCCCCC(=O)NCC(=O)N[C@H](C(=O)NCC(=O)N[C@@H](C)C(=O)N[C@H](C(=O)N[C@@H](CC(C)C)C(=O)N[C@@H](CCCCN)C(=O)N[C@H](C(=O)N[C@@H](CC(C)C)C(=O)N[C@H](C(=O)N[C@H](C(=O)NCC(=O)N[C@@H](CC(C)C)C(=O)N1CCC[C@H]1C(=O)N[C@@H](C)C(=O)N[C@@H](CC(C)C)C(=O)N[C@H](C(=O)N[C@@H](CO)C(=O)N[C@@H](Cc1c[nH]c2ccccc12)C(=O)N[C@H](C(=O)N[C@@H](CCCCN)C(=O)N[C@@H](CCCNC(=N)N)C(=O)N[C@@H](CCCCN)C(=O)N[C@@H](CCCNC(=N)N)C(=O)N[C@@H](CCC(N)=O)C(=O)N[C@@H](CCC(N)=O)C(N)=O)[C@@H](C)CC)[C@@H](C)CC)[C@@H](C)O)[C@@H](C)O)C(C)C)C(C)C)[C@@H](C)CC [Peptide C6-Mel] | 15.567 ± 0.006 | 18.4 | – | 22.4 | – | 6.5 | – | 16 | 16 | 8 | 4 | 8 | 8 | 2 | – | – | 4
4 | CCCCCCCC(=O)NCC(=O)N[C@H](C(=O)NCC(=O)N[C@@H](C)C(=O)N[C@H](C(=O)N[C@@H](CC(C)C)C(=O)N[C@@H](CCCCN)C(=O)N[C@H](C(=O)N[C@@H](CC(C)C)C(=O)N[C@H](C(=O)N[C@H](C(=O)NCC(=O)N[C@@H](CC(C)C)C(=O)N1CCC[C@H]1C(=O)N[C@@H](C)C(=O)N[C@@H](CC(C)C)C(=O)N[C@H](C(=O)N[C@@H](CO)C(=O)N[C@@H](Cc1c[nH]c2ccccc12)C(=O)N[C@H](C(=O)N[C@@H](CCCCN)C(=O)N[C@@H](CCCNC(=N)N)C(=O)N[C@@H](CCCCN)C(=O)N[C@@H](CCCNC(=N)N)C(=O)N[C@@H](CCC(N)=O)C(=O)N[C@@H](CCC(N)=O)C(N)=O)[C@@H](C)CC)[C@@H](C)CC)[C@@H](C)O)[C@@H](C)O)C(C)C)C(C)C)[C@@H](C)CC [Peptide C8-Mel] | 17.845 ± 0.013 | 18.2 | – | 18.8 | – | 7 | – | 8 | 8 | 8 | 2 | 8 | 8 | – | 0.5 | 0.5 | 2
5 | CCCCCCCCCC(=O)NCC(=O)N[C@H](C(=O)NCC(=O)N[C@@H](C)C(=O)N[C@H](C(=O)N[C@@H](CC(C)C)C(=O)N[C@@H](CCCCN)C(=O)N[C@H](C(=O)N[C@@H](CC(C)C)C(=O)N[C@H](C(=O)N[C@H](C(=O)NCC(=O)N[C@@H](CC(C)C)C(=O)N1CCC[C@H]1C(=O)N[C@@H](C)C(=O)N[C@@H](CC(C)C)C(=O)N[C@H](C(=O)N[C@@H](CO)C(=O)N[C@@H](Cc1c[nH]c2ccccc12)C(=O)N[C@H](C(=O)N[C@@H](CCCCN)C(=O)N[C@@H](CCCNC(=N)N)C(=O)N[C@@H](CCCCN)C(=O)N[C@@H](CCCNC(=N)N)C(=O)N[C@@H](CCC(N)=O)C(=O)N[C@@H](CCC(N)=O)C(N)=O)[C@@H](C)CC)[C@@H](C)CC)[C@@H](C)O)[C@@H](C)O)C(C)C)C(C)C)[C@@H](C)CC [Peptide C10-Mel] | 20.541 ± 0.029 | 17.1 | 28.8 | 18.4 | 22.1 | 7.5 | 41.1 | 32 | 32 | 16 | 8 | 32 | 32 | 8 | 2 | 2 | 8
